Experimental data as given in patent US20250198992A1, “IN VITRO METHODS” (HALEON CH SARL, priority 2022, published 2025).

How the values were obtained:
[1] = Non-specific adsorption of diclofenac on the OFM probes and tubing; conditions: for the duration of the experiment (6 h); data not shown
Experimental: Two test solutions of diclofenac diethyl amine salt (DDEA) and diclofenac sodium salt (DNa) were tested. […] Samples were collected in 1 h intervals. Syringes and Eppendorf® vials were used to deliver test solution to the OFM outlet sections and tubing, respectively. Samples from the syringes and from the Eppendorf® vials were taken at the start (t=0 h) and at the end (t=6 h) of the experiment to determine the concentration entering the OFM probe and tubing. Syringes, dosing needles, Eppendorf® vials, and pipette tips were coated with each test solution prior to use. For coating, the samples were filled with test solutions and maintained at room temperature for 30 min. Afterwards, the coating test solutions were discarded. Pipette tips underwent three cycles of filling and emptying of test solutions. The fourth filling of the pipette tip was used as the sample. Adsorption was assessed by comparing inflow to outflow concentrations. […] LLOQ was 10 ng mL^-1.

protein = conditions: cited from earlier work
[2] = both, human
Experimental: The skin was donated by male and female patients aged 28 to 63 years old undergoing abdominal plastic surgery at the Department for Plastic, Aesthetic, and Reconstructive Surgery of the Medical University Graz. […] The human skin explants were cleaned with gauze swabs and purified water and were subsequently stored frozen at −20° C.
The skin explants were thawed at room temperature for 12 h before the start of the study. They were fixed on a plate of extruded polystyrene wrapped in a medical underpad (MoliNea N, Paul Hartmann AG, Austria) and placed into a climate chamber (32° C./40-60% relative humidity) for 1 h before use. Ambient temperature and ambient relative humidity within the climate chamber were controlled throughout the experiment with a data logger with integrated temperature sensor and relative humidity sensor (175 H1 temperature and humidity data logger, Testo, Germany).
Cannulas (Sterican 20G, B.Braun, Germany) were inserted into the dermis and the subcutis of the skin explant. OFM probes (OFM-P0X-15, JR-HEALTH, Austria) were pushed through the cannulas. Afterwards, the cannulas were removed and the probes were fixed to the skin with cyanoacrylate (Cyanolit 241F, Panacol-Elosol GmbH, Germany). […]

Q: For O=C(O)Cc1ccccc1Nc1c(Cl)cccc1Cl [DDEA, diclofenac diethylammonium], which “stability in the stock solution” value [1] is on record?
A: stable

Q: With O=C(O)Cc1ccccc1Nc1c(Cl)cccc1Cl [Diclofenac, diclofenac] as the molecule, how does the protein binding (protein) read?
A: > 99.8%

Q: What about the dilution factor [2] of the same molecule?
A: 13.9 fold

Q: For O=C(O)Cc1ccccc1Nc1c(Cl)cccc1Cl [DNa, diclofenac sodium], which “concentration in recirculation probes higher than in control probes by” value ([2]; 28 h) is on record?
A: 9 ng/mL
